Test results published in PMC8319882 (Drugs in R&D, 2021).

Tested on: SARS-CoV-2 spike protein binding to ACE2

FLDKFNHNFKDLF [13AApi]
Inhibition of interaction between SARS-CoV-2 spike and immobilized ACE2: Greater than 40%
